Measured values as given in patent US20240285616A1, “THERAPEUTIC TREATMENT OF CHROMATINOPATHIES” (UNIVERSITA' DEGLI STUDI DI TRENTO, priority 2020, published 2024).
Where two headings read alike, the source gives them in different places.

Assays:
olKmt2d = experiment: Kmt2d morpholino injection in medaka embryos (in vivo model for KS); design: species or system Oryzias latipes; details: MO-Kmt2d injected at 0.015 mM, of 1,600 injected embryos, later developmental stages
Method: (§1) The Cab-strain of wt medaka fish (Oryzias latipes) was maintained following standard conditions (i.e., 12 h/12 h dark/light conditions at 27° C.). Embryos were staged according to the method proposed by Iwamatsu. All studies on fish were conducted in strict accordance with the institutional guidelines for animal research and approved by the Italian Ministry of Health: Department of Public Health, Animal Health, Nutrition, and Food Safety.
(§2) The available medaka olKmt2d (ENSORLT00000009505.1) genomic sequences were retrieved from a public database (UCSC Genome Browser, http://genome.ucsc.edu/) from human KMT2D (NM_003482.3) transcript. A morpholino (Mo: Gene Tools LLC, Oregon, USA) was designed against the ATG initiation codon within the 5′ untranslated region of the medaka ortholog of the (MO-Kmt2d: 5′-[…]-3′) of the medaka orthologous of the KMT2D gene. The specificity and inhibitory efficiencies of morpholino was determined as previously described (Conte et al., 2015). MO-Kmt2d was injected at 0.015 mM concentration into one blastomere at the one/two-cell stage. Off-target effects of the morpholino injections were excluded by repeated experiments with control morpholino or by co-injection with a p53 morpholino. For the drug treatment, chorions from injected and control embryos were removed with the hatching enzyme at St32. […]

MLL4^Q4092X MSCs [1] = experiment: Nuclear morphology, chromatin compaction and Lamin A/C after HDAC inhibitor treatment; type: cell-based, human
Method: (§3) For immunofluorescence assays, cells were seeded on coverslips coated with 0.1% gelatin (Sigma Aldrich #G1393). When needed, cells where fixed with 4% paraformaldeide for […] at 4° C. Coverslips were processed as described: permeabilization and blocking with PBS/1% BSA/5% goat serum/0.5% Triton X-100 (blocking solution) for 1 hour at room temperature, followed by incubation with primary antibody (diluted in the blocking solution) for 2 hours at RT (or overnight at 4° C., depending on the used primary antibody), 3-5 washes in PBS and incubation with secondary antibodies (diluted in the blocking solution), DRAQ5 for nuclear staining and phalloidin-TRITC for 1 h at room temperature. Images were acquired using a Leica TCS SP5 confocal microscope with HCX PL APO 63×/1.40 objective. Confocal z stacks were acquired with sections of 0.5 μm. In cases where image analysis was performed, image acquisition settings were kept constant.
Confocal imaging data analyses were performed using Image J software. For 2D/3D analysis RDAQ5 DNA dye was used to identify the nucleus and define the ROI. Then the fluorescence intensity and physical parameters were determined. For the measure of volume and flatness the inventors performed a 3D analyses using the “3D plugin 596 suite”, an Image J plugin.

MLL4^Q4092X MSCs [2] = experiment: H3K27me3 level and PcG condensate clustering after HDAC inhibitor treatment; type: cell-based, human
Method: as §3
In order to automatically detect and quantify PcG and TrxG complex proteins in fluorescence cell image z-stacks, the inventors developed an algorithm that implements a method derived from (Gregoretti et al., 2016) with variants and adaptations. The algorithm performs the 2D segmentation of cell nuclei and the detection of Protein Bodies (PBs) for each slice of the stack, followed by the 3D reconstruction and identification of nuclei and PBs. […]

MLL4^Q4092X MSCs [3] = experiment: Nuclear to cytosolic localization of YAP/TAZ by immunofluorescence; type: cell-based, human; details: sparse condition
Method: Cell lines used in this study include NIH 3T3 (ATCC), HEK293T (ATCC), human primary fibroblasts derived from either healthy of Kabuki patients (Genomic and Genetic Disorders Biobank) and hTERT-immortalized human adipose-derived MSCs. Primary fibroblasts, NIH3T3 and HEK293T were maintained at 37° C. and 5% CO2 in DMEM medium supplemented with 10% Fetal Bovine Serum (Euroclone #ECS0180L), while MSCs were cultured in 1:1 DMEM/F-12 medium (Gibco #11320-074) supplemented with 10% Fetal Bovine Serum (Euroclone #ECS0180L).
For immunofluorescence assays, cells were seeded on coverslips coated with 0.1% gelatin (Sigma Aldrich #G1393). When needed, cells where fixed with 4% paraformaldeide for minutes at 4° C. […]
To quantify the nuclear to cytosolic localization of YAP-TAZ, the inventors adapted previously published MATLAB routines (Zambrano et al., 2016). […]
To estimate the average cytosolic intensity per cell, a ring of 30 pixels width (approximately 7 microns) around each segmented nuclei was found. […] The inventors then calculated for each cell the Nuclear to Cytosolic Intensity (NCI) as the ratio of the background corrected nuclear and cytosolic average YAP-TAZ intensity.

Kmt2d morphants = type: in vivo; details: Kmt2d morphant medaka embryos grown in 0.15 μM VE822
Method: as §1, §2

MLL4^Q4092X MSCs [4] = experiment: Chondrocyte micromass differentiation of MSCs (Alcian blue); type: cell-based, human; details: in vitro
Method: For chondrocyte micromass culture, a cell solution of 1.6× 10^7 viable cells/mL was produced. Micromass cultures were generated by seeding 5-μL droplets of cell solution. After cultivating micromass cultures for 2 hours under high humidity conditions, MSCs medium was added. The day after, the medium was changed with chondrogenesis medium (Gibco #A10069-01) supplemented with Stem-Pro Chondrogenesis supplement (Gibco #10064-01). For complete differentiation, cells were maintained in culture for three weeks changing media regularly.
To detect chondrogenesis, cells were washed with PBS and fixed in 4% formaldehyde for 1 hr at RT and then washed with PBS. Cells were incubated with Alcian blue solution (1 g/L in 0.1 M HCl, Sigma-Aldrich #B8438) for 6 hrs at room temperature and then extensively washed with PBS. To measure Alcian blue deposition, dry wells were incubated with 1 mL of 6 N Guanidine HCl for 1 hour and then the absorbance was measured with a spectofotometer measured between 600 and 650 nm.

MLL4^Q4092X MSCs [5] = experiment: DNA damage response in MSCs after ATR inhibition (immunofluorescence); type: cell-based, human; details: MLL4^Q4092X MSCs treated with ATR inhibitor
Method: as §3

MLL4^Q4092X MSCs [6] = experiment: Gene expression profiling (RNA-seq) of MSCs after VE-822 treatment; type: cell-based, human; details: 8 and 24 hours after ATR inhibition
Method: WT and MLL^4Q4092X MSCs were seeded as sparse (5000 cells/cm^2) condition and collected 48 h after plating, either untreated or at 8 and 24 hours after ATR inhibition (VE-822 treatment) (medchem express #HY-13902/cs-1861). Cells were directly lysed on plates with TRIzol (Thermo Fisher cat. #15596026), and total RNAs were extracted according to the manufacturer's instructions.
Contaminating genomic DNA was removed by DNase (Qiagen 843 cat. #79254) digestion. RNA quality and concentration were assessed using the 2100 Bioanalyzer (Agilent cat. #G2939BA) and the Qubit fluorometer (Thermo Fisher cat. #Q33226), respectively. 3′-RNA-seq libraries were prepared by using the QuantSeq 3′ mRNA-Seq Library Prep Kit FWD for Illumina (Lexogen cat. #015.24) and starting from 500 ng of total RNA. Libraries were sequenced as single reads of 50 bp with the Illumina HiSeq2500. Three independent biological replicates were performed for each cell line and time point and sequenced as independent libraries.
Raw reads from fastq files were first checked for their quality using FastQC and trimmed using Trimmomatic (Bolger et al., 2014). Trimmed reads were aligned to the reference human genome assembly hg38/GRCh38 using STAR with default parameters. […] For annotation of the reads to the genome, HOMER was employed with the following command ‘analyzeRepeats.pl rna hg38-count 3utr-rpkm’. […]

## MO-Kmt2d: morpholino against the ATG initiation codon of medaka Kmt2d, 5′-CCCTGCTGCTGCTTTGATCTTTTTG-3′ (all phosphorodiamidate morpholino (PMO))
olKmt2d
  embryos with morphological cranio-facial anomalies: 73±5%

## CC(/C=C/C(=O)NO)=C\[C@@H](C)C(=O)c1ccc(N(C)C)cc1 [TSA]
MLL4^Q4092X MSCs [1]
  chromatin organization and nuclear architecture: rescued the altered chromatin organization and nuclear architecture
  nuclear morphology and structure (relative abundance of Lamin A/C): sufficient to re-establish proper nuclear morphology and structure
MLL4^Q4092X MSCs [2]
  H3K27me3 level: reduced
  clustering of PcG condensates: reduced

## CNCc1ccc(-c2cc(-c3nc(-c4ccc(S(=O)(=O)C(C)C)cc4)cnc3N)on2)cc1 [VE-822, BERZOSERTIB]
MLL4^Q4092X MSCs [3]
  YAP/TAZ nuclear localization (mechanical properties of MSCs): restored YAP/TAZ nuclear localization
MLL4^Q4092X MSCs [3]; listed as VX-970
  YAP/TAZ nuclear localization (mechanical properties of MSCs): sufficient to restore the mechanical properties
Kmt2d morphants; listed as ATR inhibitor
  chondrogenic and skeleton defects, head morphogenesis: sufficient to restore the chondrogenic and skeleton defects
Kmt2d morphants; listed as VX-970
  chondrogenic and skeleton defects, head morphogenesis: sufficient to completely recover the chondrogenic and osteogenic defects
MLL4^Q4092X MSCs [4]; listed as ATR inhibitor
  chondrogenic differentiation potential: partially rescued
MLL4^Q4092X MSCs [4]; listed as VX-970
  chondrogenic differentiation potential: sufficient to abolish the differentiation defects
MLL4^Q4092X MSCs [5]
  DNA damage response: without affecting DNA damage response
MLL4^Q4092X MSCs [6]
  expression of a subset of ATR responsive genes (architectural chromatin genes): rescued
